In ChEMBL document CHEMBL5365434, “Cyclic Diguanylate G-Quadruplex Inducer-Nitric Oxide Donor Conjugate as a Bifunctional Antibiofilm Agent and Antibacterial Synergist against Pseudomonas aeruginosa with a Hyperbiofilm Phenotype” (J Med Chem, 2023):
One block for each compound: values may come before it. Calls of active or inactive are those of the source. No cut-off for these calls is given here.

Legend:
[1] = system: Pseudomonas aeruginosa; assay: Antibiofilm activity against Pseudomonas aeruginosa PAO1 delta wspF at 1.25 uM measured after 24 hrs by crystal violet staining based analysis; type: functional, organism-based
[2] = system: Quadruplex DNA; assay: Induction of c-diGMP G quadruplex formation at 30 uM incubated for 12 hrs by circular dichroism analysis; type: nucleic-acid assay
[3] = system: Pseudomonas aeruginosa; assay: Antibacterial activity against Pseudomonas aeruginosa PAO1 delta wspF assessed as eradication of preformed bacterial biofilm at 1.25 uM incubated for 15 hrs by crystal violet staining based analysis relative to control; type: functional
[4] = system: Pseudomonas aeruginosa; assay: Antibiofilm activity against Pseudomonas aeruginosa PAO1 delta wspF assessed as increase in number of planktonic bacteria at 1.25 to 10 uM incubated for 2 hrs; type: functional, organism-based; conditions: dose 1.25-10 µM
[5] = Cytotoxicity against African green monkey Vero cells assessed as survival rate at 0.156 to 20 uM measured after 48 hrs by MTT assay relative to control; type: toxicity, cell-based; conditions: chlorocebus sabaeus, dose 0.156-20 µM, read-out: Survival
[6] = system: Pseudomonas aeruginosa; assay: Antibacterial activity against Pseudomonas aeruginosa PAO1 delta wspF assessed as inhibition of biofilm formation at 1.25 uM incubated for 24 hrs relative to control; type: functional; parameters: scale not given: the % may be the effect or the level left
[7] = system: Pseudomonas aeruginosa; assay: Synergistic antibacterial activity Pseudomonas aeruginosa PAO1 delta wspF assessed as fold reduction in survival of biofilm bacteria at 1.25 to 10 uM incubated for 15 hrs in presence of tobramycin by checker board assay; type: functional; conditions: dose 1.25-10 µM
[8] = system: Pseudomonas aeruginosa; assay: Synergistic antibacterial activity against Pseudomonas aeruginosa PAO1 delta wspF assessed as inhibition of reproduction of biofilm bacteria at high concentration incubated for 15 hrs in presence of tobramycin by checker board assay; type: functional, organism-based
[9] = system: Caenorhabditis elegans; assay: Synergistic anti-infective activity against Caenorhabditis elegans assessed as survival rate at 10 uM incubated for 24 hrs in presence of tobramycin relative to control; type: functional
[10] = system: Caenorhabditis elegans; assay: Anti-infective activity against Caenorhabditis elegans assessed as survival rate at MBC level incubated for 24 hrs relative to control; type: functional
[11] = system: Pseudomonas aeruginosa; assay: Synergistic antibacterial activity against Pseudomonas aeruginosa PAO1 delta wspF assessed as inhibition of reproduction of biofilm bacteria at 2X MBC in presence of streptozocin by checker board assay; type: functional, organism-based
[12] = system: DNA; assay: Induction of pBR322 DNA (unknown origin) damage assessed as DNA embedding effect by measuring tail formation incubated for 10 mins by electrophoresis assay; type: toxicity
[13] = system: Caenorhabditis elegans; assay: Synergistic anti-infective activity against Caenorhabditis elegans assessed as survival rate at 0.16 to 20 uM incubated for 24 hrs in presence of tobramycin relative to control; type: functional; conditions: dose 0.16-20 µM
[14] = system: Pseudomonas aeruginosa; assay: Antibacterial activity against Pseudomonas aeruginosa PAO1 delta wspF assessed as eradication of mature biofilm at 0.16 to 40 uM incubated for 15 hrs by crystal violet staining based analysis relative to control; type: functional; conditions: dose 0.16-40 µM
[15] = system: Vero; assay: Cytotoxicity against African green monkey Vero cells at 0.156 to 20 uM measured after 24 hrs by MTT assay relative to control; type: toxicity, cell-based; conditions: chlorocebus sabaeus, dose 0.156-20 µM
[16] = system: Pseudomonas aeruginosa; assay: Antibacterial activity against Pseudomonas aeruginosa PAO1 delta wspF assessed as eradication of preformed bacterial biofilm at 0.625 to 40 uM incubated for 15 hrs by crystal violet staining based analysis; type: functional, organism-based; conditions: dose 0.625-40 µM
[17] = system: Pseudomonas aeruginosa; assay: Synergistic antibacterial activity against Pseudomonas aeruginosa PAO1 delta wspF assessed as inhibition of reproduction of biofilm bacteria at upto 40 uM incubated for 15 hrs in presence of tobramycin by checker board assay; type: functional, organism-based
[18] = system: Pseudomonas aeruginosa; assay: Anti-motility activity against Pseudomonas aeruginosa PAO1 delta wspF assessed as promotion of swarming motility measured after 24 hrs; type: functional, organism-based; conditions: dose 0.156-1.25 µM
[19] = system: Pseudomonas aeruginosa; assay: Antibacterial activity against Pseudomonas aeruginosa PAO1 delta wspF assessed as reduction in c-di-GMP induced EMP production at 1.25 uM incubated for 3 hrs by Congo red dye based spectrophotometric assay relative to control; type: functional; parameters: scale not given: the % may be the effect or the level left
[20] = system: Pseudomonas aeruginosa; assay: Antibacterial activity against Pseudomonas aeruginosa PAO1 delta wspF assessed as reduction in c-di-GMP induced EMP production at 0.156 to 1.25 uM incubated for 3 hrs by Congo red dye based spectrophotometric assay; type: functional, organism-based; conditions: dose 0.156-1.25 µM

Structure (SMILES): CNc1ccc(/C=C/c2ccc3ccccc3[n+]2C)cc1
Activity [1]: Active
Activity [2]: Active

Structure (SMILES): COc1cc(/C=C/c2sc3ccccc3[n+]2C)ccc1N(C)N=O.[I-]
Activity [3]: 40%
Activity [4]: Active
viability at 48 h, up to 20 µM [5]: 80%
Activity [6]: 80%
fold change (FC) [7]: 1000
Activity [8]: Active
Activity [9]: 60%

Structure (SMILES): CCNc1ccc(/C=C/c2ccc3ccccc3[n+]2C)cc1
Activity [1]: Active
Activity [2]: Active

Structure (SMILES): CCCNc1ccc(/C=C/c2ccc3ccccc3[n+]2C)cc1
Activity [1]: Active
Activity [2]: Active

Structure (SMILES): CN1/C(=C/c2cc[n+](C)c3ccccc23)Sc2ccccc21.Cc1ccc(S(=O)(=O)[O-])cc1
Activity [10]: 20%
Activity [11]: Active
Activity [12]: Active

Structure (SMILES): CN(N=O)C(=O)N[C@@H](C=O)[C@@H](O)[C@H](O)[C@H](O)CO [STREPTOZOCIN]
Activity [13]: 25%
Activity [14]: 30%

Structure (SMILES): CNc1ccc(/C=C/c2sc3ccccc3[n+]2C)cc1OC.[I-]
Activity [15]: > 98%
Activity [16]: inactive
Activity [17]: inactive
Activity [18]: Dose-Dependent Effect
Activity [12]: Not Active
Activity [1]: Active
Activity [6]: 60%
Activity [19]: <50%
Activity [20]: Active
Activity [2]: Active

More lines, main results first:

Activity [2]: Active
Structure (SMILES): CCNc1ccc(/C=C/c2sc3ccccc3[n+]2C)cc1
Activity [1]: Active

Activity [2]: Active
Structure (SMILES): CNc1ccc(/C=C/c2sc3ccccc3[n+]2C)cc1
Activity [1]: Active

Activity [2]: Active
Structure (SMILES): CCCNc1ccc(/C=C/c2sc3ccccc3[n+]2C)cc1
Activity [1]: Active

Activity [2]: Active
Structure (SMILES): CC(C)Nc1ccc(/C=C/c2sc3ccccc3[n+]2C)cc1
Activity [1]: Active
